Results as given in US8691791B2, “Microspheres for treatment of brain tumors” (Biocompatibles UK Limited, priority 2007, dated 2014).

Columns and labels:
Assay type in all cases: physicochemical
[1] = Maximum loading capacity of DEB with Doxorubicin and Mitoxantrone; conditions: beads 700-900 μm
Protocol: Microspheres of the invention were prepared as described in the Reference Example. Sample beads of the size range 700-900 μm were loaded by immersing the beads in aqueous solutions of Doxorubicin HCl (Dox) and Mitoxantrone 2HCl (Mitox). Loading was monitored using UV-visible spectroscopy at the respective wavelengths for absorption maxima of the two drugs (483 nm and 660 nm respectively). The beads were sized and imaged using an Olympus BX50F4 microscope with a Colorview III camcorder. Compressibility was measured using an Instron 4411 with a 50 N load cell.

[2] = Elution of doxorubicin from high AMPS microspheres into distilled water
Protocol: High AMPS microspheres were loaded with various concentrations of doxorubicin and the microspheres eluted into 250 ml of distilled water (FIG. 2).
For the higher drug loadings, a burst effect is evident in the first few minutes, followed by a prolonged period of slower release. It is surmised that the burst represents the free drug eluting from the water held within the microspheres, whereas the prolonged elution results from the drug that is “bound” into the spheres essentially by ionic interaction between the charged groups. For the highest loading of drug (from the 20 mg/ml loading solution), the burst effect represents some 45% of the total drug loading of the spheres, the remainder taking several days to completely elute from the carrier. Studies have shown that 100% of the drug is eventually eluted from the microspheres. Drug-loaded beads were lyophilised to remove water and sterilised using gamma irradiation.

[3] = AQ4 and AQ4N loading profile and maximum loading capacity of DC Bead; conditions: DC Bead 500-700 μm; AQ4N target loading 60 mg/mL, 20 hr
[4] = Irinotecan loading capacity of microspheres (depletion method, UV 369 nm); conditions: microspheres 500-700 μm, irinotecan solution 20 mg/ml, at least 4 hours
Protocol: Irinotecan-loading content and loading efficacy was determined using microspheres, 500-700 μm. A bead slurry was mixed with irinotecan solution (20 mg/ml) in calculated amount, rotating-mixed for at least 4 hours. The solution was measured with UV at 369 nm to determine the irinotecan concentration and the drug-loading in beads (by depletion method). […] Above this the loading efficacy dropped remarkably, indicating saturation of the beads.

[5] = Elution from irinotecan lyophilised microspheres into PBS buffer
Text: Irinotecan was eluted from lyophilised microspheres with different loadings of camptothecin into PBS buffer. The elution rate slowed down after lyophilisation when compared with the non-lyophilised samples. […] Drug-loaded beads were lyophilised to removed water and sterilised using gamma irradiation.

SMILES	Average (mg) of drug per mL of beads (average maximum capacity of DEB) [1]	Mols of loaded drug/Mols of available binding sites [1]	drug eluting at 3 hours ([2]; 133.2 μg/ml and 2 mg/ml loaded microspheres, 250 ml distilled water)	drug eventually eluted from the microspheres ([2]; high AMPS microspheres)	burst effect as share of the total drug loading of the spheres ([2]; high AMPS microspheres, highest loading (20 mg/ml loading solution), 250 ml distilled water, first few minutes)	maximum loading capacity in DC Bead [3]	concentration range in which irinotecan content in beads increased linearly with loading amount (above it saturation of the beads) [4]	elution rate after lyophilisation compared with non-lyophilised samples [5]	Average (mg) of drug per mL of beads (average maximum capacity of DEB) ([1]; listed as Mitox)
COc1cccc2c1C(=O)c1c(O)c3c(c(O)c1C2=O)C[C@@](O)(C(=O)CO)C[C@@H]3O[C@H]1C[C@H](N)[C@H](O)[C@H](C)O1 [Doxorubicin]	39.0 mg per mL of beads	0.9	below the detection limit	100%	~45%	40 mg/mL			
CCc1c2c(nc3ccc(OC(=O)N4CCC(N5CCCCC5)CC4)cc13)-c1cc3c(c(=O)n1C2)COC(=O)[C@]3(O)CC [Irinotecan]							below 50 mg/ml	slowed down	
O=C1c2c(O)ccc(O)c2C(=O)c2c(NCCNCCO)ccc(NCCNCCO)c21 [Mitoxantrone]	20.0 mg per mL of beads	0.5							20 mg per mL of beads
